Laboratory results: patent US8148347B2, “Inhibition of interaction of PSD93 and PSDS95 with nNOS and NMDA receptors” (The Johns Hopkins University, priority 2000, dated 2012)

Key:
[1] = system: Male Sprague-Dawley rats; assay: blood pressure and heart rate during isoflurane anesthesia; format: in vivo, rat
Excerpt: On the fifth day after saline or ODNs injection, each rat was placed in a clear plastic cone and anesthetized with 5% isoflurane in oxygen for three to five minutes. After tracheostomy, the trachea of each animal was intubated with a 16-gauge polyethylene catheter. The inspired isoflurane concentration was reduced to 2%, and the animals breathed spontaneously until cannulation of a carotid artery and a jugular vein with PE-50 tubing was accomplished. The isoflurane concentration was decreased further to 1.5%, and ventilation was controlled by a Harvard Animal Respirator (Harvard Apparatus, South Natick, Mass.) adjusted according to the measurement of arterial blood gases to maintain normal partial pressure of oxygen (PO2=91-94 mmHg), partial pressure of carbon dioxide (PCO2=33-41 mmHg) and pH (7.4-7.44). Electrocardiography and systolic and diastolic blood pressure were monitored using a Grass Polygraph (Astroumed Grass, Quincy, Mass.) and Gould Pressure Transducer (Gould, Cleveland, Ohio). Rectal temperature was maintained between 36.5 and 37.5° C. by use of a heating blanket and warming lights.
In some saline-treated rats, after initial baseline MAC determination, NMDA at the dose of 1.25 μg^38 or saline was injected intrathecally in a volume of 10 μl saline, followed by an injection of 10 μl saline to flush the catheter. Fresh NMDA solution was prepared for each experiment. […] At this isoflurane concentration, 10 min after the intrathecal injection of NMDA, the animals were tested again for reactivity to tail clamp. The concentration of isoflurane was increased, and response to tail clamp was checked every 12-15 min thereafter until a negative response was achieved. In some antisense ODN (50 μg)-treated rats, after initial MAC determination, NMDA or saline was also administered intrathecally. The MAC for isoflurane was again determined following the aforementioned procedures.

[2] = system: Male Sprague-Dawley rats; assay: formalin-induced pain behaviors (flinches and shakes); format: in vivo, rat; conditions: for reduction of the number of flinches and shakes evoked by formalin: 50 μg intrathecal
Procedure: (§1) All of the experiments were carried out with the approval of the Animal Care Committee at the Johns Hopkins University. Thirty-eight male Sprague-Dawley rats (250-300 g, Hilltop Laboratory Animals, Scottsdale, Pa., USA) were implanted with an intrathecal PE-10 catheter at the rostral level of the spinal cord lumbar enlargement according to the method described by Yaksh and Rudy. After 4 to 7 days of recovery, they were intrathecally injected with one of the following agents every 24 hours for 4 consecutive days: saline (10 μl, n=6), PSD-95 antisense oligodeoxynucleotide (ODN) (12.5 μg/10 μl, n=6; 25 μg/10 μl, n=6; 50 μg/10 μl, n=6), sense ODN (50 μg/10 μl, n=5) or missense ODN (50 μg/10 μl, n=9). On the fifth day, formalin (4%, 100 μl) was injected into one of the hindpaws. The number of flinches and shakes of the injected paw was assessed for 1 hour. The observational session was divided into phasic (0-10 min) and tonic (10-60 min) periods. Rats were sacrificed two hours after formalin injection and their lumbar spinal cords were harvested for c-fos immunohistochemistry.

[3] = system: c-fos; assay: c-fos immunohistochemistry in lumbar spinal cord after formalin; format: in vivo, rat
Procedure: as §1

[4] = system: rats; assay: rat neuropathic pain model, unilateral L5 spinal nerve ligation, hind paw withdrawal; format: in vivo; conditions: 50 μg/10 μl intrathecal every 24 h for 4 days
Procedure: The effect of the deficiency of PSD-95/SAP90 on mechanical and thermal hyperalgesia in a rat neuropathic pain model was observed. The antisense oligonucleotide (OND) specifically against PSD-95/SAP90 was employed to reduce the expression of PSD-95/SAP90 in spinal cord. The rats were injected intrathecally with saline (10 μl), antisense OND (50 μg/10 μl) or sense OND (50 μg/10 μl) every 24 h for 4 days. The unilateral L5 spinal nerve was ligated. Hind paw withdrawal response to mechanical or heat stimuli was conducted 1 day prior to the surgery and at 3, 5, 7 and 9 days postoperatively. In the saline-treated group, mechanical and thermal hyperalgesia developed within 3 days and persisted for 9 days or longer. […] PSD-95/SAP90 is likely involved in the molecular mechanism of the production of hyperalgesia in neuropathic pain triggered via NMDA receptor activation.

[5] = pretreated with 50 μg antisense ODN, intrathecal NMDA 1.25 μg

Substance | BP Diastolic ([1]; 50 μg, before the tail clamp) | BP Systolic ([1]; 50 μg, before the tail clamp) | Heart rate ([1]; 50 μg, before the tail clamp) | difference in the number of flinches and shakes vs saline-treated group ([2]; 50 μg/10 μl, either period) | BP Diastolic ([1]; 12.5 μg, before the tail clamp) | BP Systolic ([1]; 12.5 μg, before the tail clamp) | Heart rate ([1]; 12.5 μg, before the tail clamp) | BP Diastolic ([1]; 25 μg, before the tail clamp) | BP Systolic ([1]; 25 μg, before the tail clamp) | Heart rate ([1]; 25 μg, before the tail clamp) | Heart rate [1, 5] | diastolic blood pressure [1, 5] | systolic blood pressure [1, 5] | decrease of the number of Fos-like immunoreactive neurons per section ([3]; 50 μg intrathecal) | changes in the number of Fos-like immunoreactive neurons vs saline-treated group ([3]; 12.5 and 25 μg) | onset of the mechanical hyperalgesia [4] | onset of the thermal hyperalgesia [4] | reduction of the number of flinches and shakes evoked by formalin ([2]; phasic period (0-10 min)) | reduction of the number of flinches and shakes evoked by formalin ([2]; tonic period (10-60 min)) | changes in the number of flinches and shakes vs saline-treated group ([2]; 12.5 and 25 μg, phasic and tonic periods)
5′-AAGCCCTTGTTCCCATTT-3′ (DNA, backbone and methylation of C not given here; listed as Rattus rattus) [MS, missense OND control, reference compound] | 105.75 ± 11.40 mmHg | 121.33 ± 15.84 mmHg | 524.70 ± 44.90 beats/min | did not show any significant difference |  |  |  |  |  |  |  |  |  |  |  |  |  |  |  | 
5′-TGTGATCTCCTCATACTC-3′ (DNA, backbone and methylation of C not given here; listed as Rattus rattus) [antisense oligonucletide corresponding to the PDZ domain nucleotides 241 to 258 of rat PSD-95/SAP90 mRNA] | 112.50 ± 11.20 mmHg | 129.58 ± 11.73 mmHg | 514.20 ± 62.20 beats/min |  | 112.58 ± 7.14 mmHg | 127.58 ± 11.72 mmHg | 534.80 ± 29.13 beats/min | 105.83 ± 7.89 mmHg | 122.75 ± 10.81 mmHg | 541.20 ± 16.70 beats/min | 553±17 beats/min | 117.00±6.35 mmHg | 138.00±5.77 mmHg | 48% | failed to produce significant changes | significant delay | significant delay | but not in the phasic period | 59% | failed to produce significant changes
